Patent publication US20240228488A1 (TAKEDA PHARMACEUTICAL COMPANY LIMITED, priority 2021, published 2024)

target: human activated kallikrein enzyme (Homo sapiens, UniProt P03952); assay: Plasma kallikrein inhibition, fluorogenic PFR-AMC substrate, 500 pM activated kallikrein format; type: biochemical; settings: 500 pM activated kallikrein, 300 uM PFR-AMC, 30 min preincubation, 10 min reaction; read-out: Primary Dose Response Assay: Average EC50
Protocol: Compounds were evaluated for inhibition of the human activated kallikrein enzyme in two formats of an assay employing a fluorogenic peptide substrate. In one assay format, the concentrations of reagents were as follows: 20 mM Tris pH 7.5, 1 mM EDTA, 150 mM sodium chloride, 0.1% PEG-400, 0.1% Triton X-100, 500 pM activated kallikrein enzyme, 300 uM Pro-Phe-Arg-7-amido-4-methylcoumarin (PFR-AMC) substrate. Prior to reaction initiation with substrate, enzyme and inhibitors were preincubated for 30 min at room temperature. After initiation with substrate, reactions were incubated for 10 min at room temperature and fluorescence emission at 460 nm from 380 nm excitation measured with a microplate reader. In another assay format, the concentrations of reagents were as follows: 20 mM Tris pH 7.5, 1 mM EDTA, 150 mM sodium chloride, 0.1% PEG-400, 0.1% Triton X-100, 5 pM activated kallikrein enzyme, 300 uM PFR-AMC substrate. Prior to reaction initiation with substrate, enzyme and inhibitors were preincubated for 30 min at room temperature. After initiation with substrate, reactions were incubated for 18 hr at room temperature and fluorescence emission at 460 nm from 380 nm excitation measured with a microplate reader.
Table 49 provides the results of the assay in the format with 500 pM activated kallikrein assay. For the compounds listed in Table 49, the EC50 values are reported according to the following ranges: A≤1.0 nM; 1.0 nM<B≤10 nM; 10 nM<C≤100 nM; 100 nM<D≤1000 nM; 1000 nM<E≤6000 nM; 6000 nM<F.
Table 51 provides comparative plasma kallikrein inhibition potency in the assay format with 500 pM activated kallikrein assay (described in detail in a preceding example). For the compounds listed in Table 51, the EC50 values are reported according to the following ranges: A≤1.0 nM; 1.0 nM<B≤10 nM; 10 nM<C≤100 nM; 100 nM<D≤1000 nM; 1000 nM<E≤6000 nM; 6000 nM<F.

Sequence of human activated kallikrein enzyme (P03952 391-638 limits assumed): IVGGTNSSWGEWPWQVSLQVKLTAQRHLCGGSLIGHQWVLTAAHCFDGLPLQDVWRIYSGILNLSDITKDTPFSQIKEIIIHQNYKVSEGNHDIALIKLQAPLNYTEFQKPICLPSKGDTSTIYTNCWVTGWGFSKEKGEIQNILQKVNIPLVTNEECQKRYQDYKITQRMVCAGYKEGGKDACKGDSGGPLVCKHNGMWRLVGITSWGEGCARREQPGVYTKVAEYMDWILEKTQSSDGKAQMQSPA
Sequence of human activated kallikrein enzyme (P03952 20-390 partner limits assumed): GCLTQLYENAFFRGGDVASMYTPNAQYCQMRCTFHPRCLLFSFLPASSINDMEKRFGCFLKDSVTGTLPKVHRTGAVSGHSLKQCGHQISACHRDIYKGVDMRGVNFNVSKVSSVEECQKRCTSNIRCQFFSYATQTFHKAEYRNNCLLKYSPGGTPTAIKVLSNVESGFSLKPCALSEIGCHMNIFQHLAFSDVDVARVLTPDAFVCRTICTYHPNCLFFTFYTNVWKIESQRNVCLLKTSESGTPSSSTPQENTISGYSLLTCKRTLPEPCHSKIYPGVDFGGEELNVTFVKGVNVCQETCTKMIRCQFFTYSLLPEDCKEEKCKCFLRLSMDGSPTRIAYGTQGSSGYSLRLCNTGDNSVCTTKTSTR

Question: How did the EC50 turn out when Cc1cc(NCc2cn3cc(C4CC4)cc(N4CC(=O)N(C)C4=O)c3n2)cc(NC(=O)[C@H]2C[C@@H]2c2nccc(C)n2)n1 [Example I-642, (1S,2S)—N-(4-(((6-cyclopropyl-8-(3-methyl-2,4-dioxoimidazolidin-1-yl)imidazo[1,2-a]pyridin-2-yl)methyl)amino)-6-methylpyridin-2-yl)-2-(4-methylpyrimidin-2-yl)cyclopropane-1-carboxamide] was run?
Answer: < 0.001 µM

Question: With Cc1ccnc([C@H]2C[C@@H]2C(=O)Nc2cc(N(CC(=O)O)Cc3cn4cc(C5CC5)cc(N5CC(=O)N(C)C5=O)c4n3)ncn2)n1 [Example 461, N-((6-cyclopropyl-8-(3-methyl-2,4-dioxoimidazolidin-1-yl)imidazo[1,2-a]pyridin-2-yl)methyl)-N-(6-((1S,2S)-2-(4-methylpyrimidin-2-yl)cyclopropane-1-carboxamido)pyrimidin-4-yl)glycine] as the molecule, how does the EC50 read?
Answer: 0.001 to 0.01 µM

Question: Which EC50 does the source give for Cc1ccnc([C@H]2C[C@@H]2C(=O)Nc2cc(N[C@H](C)c3cn4cc(C(F)F)cc(N5CC(=O)N(C)C5=O)c4n3)nc(C)n2)n1 [Example 428, (1S,2S)-N-(6-(((R)-1-(6-(difluoromethyl)-8-(3-methyl-2,4-dioxoimidazolidin-1-yl)imidazo[1,2-a]pyridin-2-yl)ethyl)amino)-2-methylpyrimidin-4-yl)-2-(4-methylpyrimidin-2-yl)cyclopropane-1-carboxamide] here?
Answer: < 0.001 µM

Question: How did the EC50 turn out when Cc1ccnc([C@H]2C[C@@H]2C(=O)Nc2cn3c(Cc4cn5cc(C6CC6)cc(N6CC(=O)N(C)C6=O)c5n4)nnc3cn2)n1 [Example 630, (1S,2S)—N-(3-((6-cyclopropyl-8-(3-methyl-2,4-dioxoimidazolidin-1-yl)imidazo[1,2-a]pyridin-2-yl)methyl)-[1,2,4]triazolo[4,3-a]pyrazin-6-yl)-2-(4-methylpyrimidin-2-yl)cyclopropane-1-carboxamide] was run?
Answer: 0.001 to 0.01 µM

Question: O=C(Nc1cncc(NCc2cn3cc(C4CC4)ccc3n2)n1)[C@H]1C[C@@H]1c1cccc(Cl)c1 (racemic) [Example 345, (rac-(1S*,2S*))-2-(3-chlorophenyl)-N-(6-(((6-cyclopropylimidazo[1,2-a]pyridin-2-yl)methyl)amino)pyrazin-2-yl)cyclopropane-1-carboxamide] was tested. Which EC50 did it give?
Answer: 0.01 to 0.1 µM

Question: Which EC50 does the source give for Cc1cc(N2CC3CC3C2=O)c2nc([C@@H](C)Nc3cc(NC(=O)[C@H]4C[C@@H]4c4nccc(C)n4)nc(C)n3)cn2c1 (stereo partly drawn) [Example 430, (1S,2S)-N-(2-methyl-6-(((1R)-1-(6-methyl-8-(2-oxo-3-azabicyclo[3.1.0]hexan-3-yl)imidazo[1,2-a]pyridin-2-yl)ethyl)amino)pyrimidin-4-yl)-2-(4-methylpyrimidin-2-yl)cyclopropane-1-carboxamide] here?
Answer: 0.001 to 0.01 µM

Question: O=C(Nc1cc(NCc2cn3cc(C4CC4)ccc3n2)ncn1)[C@@H]1C[C@]12CCc1ccc(Cl)cc12 (racemic) [Example I-183, rac-(1R*,2R*)-6′-chloro-N-(6-(((6-cyclopropylimidazo[1,2-a]pyridin-2-yl)methyl)amino)pyrimidin-4-yl)-2′,3′-dihydrospiro[cyclopropane-1,1′-indene]-2-carboxamide] was tested. Which EC50 did it give?
Answer: 0.01 to 0.1 µM

Question: How did the EC50 turn out when CN(C)C1CCN(c2cc(C3CC3)cn3cc(CNc4cc(NC(=O)[C@H]5C[C@@H]5c5cccc(Cl)c5)ncn4)nc23)C1 (single isomer, unassigned) [Example I-15] was run?
Answer: 0.001 to 0.01 µM

Question: How did the EC50 turn out when O=C(Nc1cc(NCc2cn3cc(C4CC4)cc(N4CC(F)C4)c3n2)ncn1)[C@H]1C[C@@H]1c1cccc(Cl)c1 [Example I-145, (1S,2S)-2-(3-chlorophenyl)-N-(6-(((6-cyclopropyl-8-(3-fluoroazetidin-1-yl)imidazo[1,2-a]pyridin-2-yl)methyl)amino)pyrimidin-4-yl)cyclopropane-1-carboxamide] was run?
Answer: 0.01 to 0.1 µM

Question: With Cc1ccnc([C@H]2C[C@@H]2C(=O)Nc2cc(N[C@@H](C)c3cn4cc(C(F)F)cc(N5CC(=O)N(C)C5=O)c4n3)ncn2)n1 [Example 416, (1S,2S)-N-(6-(((S)-1-(6-(difluoromethyl)-8-(3-methyl-2,4-dioxoimidazolidin-1-yl)imidazo[1,2-a]pyridin-2-yl)ethyl)amino)pyrimidin-4-yl)-2-(4-methylpyrimidin-2-yl)cyclopropane-1-carboxamide] as the molecule, how does the EC50 read?
Answer: 0.01 to 0.1 µM

Question: How did the EC50 turn out when O=C(Nc1cc(NCc2cn3cc(C4CC4)ccc3n2)ncn1)[C@H]1[C@H](CO)[C@@H]1c1cccc(Cl)c1 (racemic) [Example I-180, rac-(1R*,2S*,3R*)-2-(3-chlorophenyl)-N-(6-(((6-cyclopropylimidazo[1,2-a]pyridin-2-yl)methyl)amino)pyrimidin-4-yl)-3-(hydroxymethyl)cyclopropane-1-carboxamide] was run?
Answer: 0.01 to 0.1 µM

Question: With CN1C(=O)CN(c2cc(C3CC3)cn3cc(CNc4cc(NC(=O)[C@H]5C[C@@H]5c5nccc(C(F)(F)F)n5)ncn4)nc23)C1=O (racemic) [Example I-165, rac-(1S*,2S*)-N-(6-(((6-cyclopropyl-8-(3-methyl-2,4-dioxoimidazolidin-1-yl)imidazo[1,2-a]pyridin-2-yl)methyl)amino)pyrimidin-4-yl)-2-(4-(trifluoromethyl)pyrimidin-2-yl)cyclopropane-1-carboxamide] as the molecule, how does the EC50 read?
Answer: 0.001 to 0.01 µM

Question: For Cc1cc2nn(Cc3cn4cc(C5CC5)ccc4n3)cc2c(NC(=O)[C@H]2C[C@@H]2c2cccc(Cl)c2)n1 [Example 581, (1S,2S)-2-(3-chlorophenyl)-N-(2-((6-cyclopropylimidazo[1,2-a]pyridin-2-yl)methyl)-6-methyl-2H-pyrazolo[4,3-c]pyridin-4-yl)cyclopropane-1-carboxamide], which EC50 is on record?
Answer: 0.001 to 0.01 µM

Question: O=C(Nc1cc(NCc2cn3cc(C4CC4)ccc3n2)ccn1)[C@@H]1C[C@]12CCc1ccc(Cl)cc12 (relative stereo) [Example I-272, rac-(1S*,2S*)-6′-chloro-N-(4-(((6-cyclopropylimidazo[1,2-a]pyridin-2-yl)methyl)amino)pyridin-2-yl)-2′,3′-dihydrospiro[cyclopropane-1,1′-indene]-2-carboxamide] was tested. Which EC50 did it give?
Answer: 1 to 6 µM

Question: Which EC50 does the source give for O=C(Nc1cc(NCc2cn3cc(C4CC4)ccc3n2)ncn1)[C@H]1C[C@@H]1c1cc(Cl)ccc1O (racemic) [Example 313, rac-(1S*,2S*)-2-(5-chloro-2-hydroxyphenyl)-N-(6-(((6-cyclopropylimidazo[1,2-a]pyridin-2-yl)methyl)amino)pyrimidin-4-yl)cyclopropane-1-carboxamide] here?
Answer: 0.001 to 0.01 µM

Question: Which EC50 does the source give for O=C(Nc1cc(NCc2cn3cc(C4CC4)cc(CN4CCOCC4)c3n2)ncn1)[C@H]1C[C@@H]1c1cccc(Cl)c1 (racemic) [Example 73, rac-(1S*,2S*)-2-(3-chlorophenyl)-N-(6-(((6-cyclopropyl-8-(morpholinomethyl)imidazo[1,2-a]pyridin-2-yl)methyl)amino)pyrimidin-4-yl)cyclopropane-1-carboxamide] here?
Answer: 0.001 to 0.01 µM

Question: Which EC50 does the source give for Cc1ccnc([C@H]2C[C@@H]2C(=O)Nc2cc3c(cn2)nnn3Cc2cn3cc(C4CC4)cc(N4CC(=O)N(C)C4=O)c3n2)n1 [Example I-635, (1S,2S)—N-(1-((6-cyclopropyl-8-(3-methyl-2,4-dioxoimidazolidin-1-yl)imidazo[1,2-a]pyridin-2-yl)methyl)-1H-[1,2,3]triazolo[4,5-c]pyridin-6-yl)-2-(4-methylpyrimidin-2-yl)cyclopropane-1-carboxamide] here?
Answer: < 0.001 µM

Question: How did the EC50 turn out when O=C1CN(c2cc(C3CC3)cn3cc(CNc4cc(NC(=O)[C@H]5C[C@@H]5c5cccc(Cl)c5)ncn4)nc23)CCN1 [Example I-149, (1S,2S)-2-(3-chlorophenyl)-N-(6-(((6-cyclopropyl-8-(3-oxopiperazin-1-yl)imidazo[1,2-a]pyridin-2-yl)methyl)amino)pyrimidin-4-yl)cyclopropane-1-carboxamide] was run?
Answer: 0.001 to 0.01 µM

Question: With Cc1ccnc([C@H]2C[C@@H]2C(=O)Nc2cc(N[C@H](C)c3cn4cc(C5CC5)cc(N5CC(=O)N(C)C5=O)c4n3)nc(N(C)C)n2)n1 [Example 441, (1S,2S)-N-(6-(((R)-1-(6-cyclopropyl-8-(3-methyl-2,4-dioxoimidazolidin-1-yl)imidazo[1,2-a]pyridin-2-yl)ethyl)amino)-2-(dimethylamino)pyrimidin-4-yl)-2-(4-methylpyrimidin-2-yl)cyclopropane-1-carboxamide] as the molecule, how does the EC50 read?
Answer: < 0.001 µM

Question: With CC(C)(C)OC(=O)Nc1ccc([C@H]2C[C@@H]2C(=O)Nc2cc(NCc3cn4cc(C5CC5)ccc4n3)ncn2)cc1Cl (racemic) [Example I-188, rac-tert-butyl (2-chloro-4-((1S*,2S*)-2-((6-(((6-cyclopropylimidazo[1,2-a]pyridin-2-yl)methyl)amino)pyrimidin-4-yl)carbamoyl)cyclopropyl)phenyl)carbamate] as the molecule, how does the EC50 read?
Answer: > 6 µM

same assay, conditions: comparative compounds, 500 pM activated kallikrein format; read-out: Primary Dose Response Assay: Average EC50

Question: How did the EC50 turn out when O=C(Nc1cc(NCc2cn3cc(C4CC4)ccc3n2)ncn1)NC1CC1c1cccc(Cl)c1 (centres unmarked) was run?
Answer: 1 to 6 µM

Question: Which EC50 does the source give for O=C(NCc1cccc(Cl)c1)c1cnn(Cc2cn3cc(C4CC4)ccc3n2)c1 here?
Answer: 1 to 6 µM

Question: O=C(NC1CC1Cc1cccc(Cl)c1)c1cnn(Cc2cn3cc(C4CC4)ccc3n2)c1 (centres unmarked) was tested. Which EC50 did it give?
Answer: 1 to 6 µM
